For one data set, the system named is S. aureus 675. The data set is described as follows: In vitro MIC, standard microtiter assay. The format is cell-based, Staphylococcus aureus. The following applies: Staphylococcus aureus, 675. The source says: (§1) In vitro minimum inhibitory concentrations (MIC) of the AAD-609 complex and of Factors A, B, CC2 and D, using standard microtiter assay procedures, against a number of microorganisms are reported in Table A, which follows.

The next data set relates to S. aureus 209P. The data set can be described thus: In vitro MIC, standard microtiter assay. It counts as cell-based, Staphylococcus aureus. The following applies: Staphylococcus aureus, 209P.
Description: as §1

In another data set the test system is S. aureus 674. The data set can be described thus: In vitro MIC, standard microtiter assay. It counts as cell-based, Staphylococcus aureus. The following applies: Staphylococcus aureus, 674.
Description: as §1

For data set [1], the system named is S. aureus 910 (methicillin resistant strain). The data set can be described thus: In vitro MIC, standard microtiter assay. It counts as cell-based, Staphylococcus aureus. The following applies: Staphylococcus aureus.
Description: as §1

Data set [2] has as its system S. faecalis 34358. The data set can be described thus: Mouse protection test. The note with it: Enterococcus faecalis, 34358, sc. It counts as in vivo. An excerpt:
(§2) in mouse protection tests^1
(§3) ^1 Mice dosed 1 and 5 H post infection s.c.; ED50, mg/kg.

For data set [3], the system named is S. epidermidis 651 (methicillin resistant strain). The data set can be described thus: Mouse protection test. The following applies: Staphylococcus epidermidis, sc. It counts as in vivo.
Description: as §2, §3

For data set [4], the system named is S. epidermidis 2479. The data set is described as follows: Mouse protection test. The note with it: Staphylococcus epidermidis, 2479, sc. The format is in vivo.
Description: as §2, §3

The next data set has as its system S. aureus HH127. The data set is described as follows: Mouse protection test. The format is in vivo. The note with it: Staphylococcus aureus, HH127, sc.
Description: as §2, §3

The subject of data set [5] is S. aureus 2620 (methicillin resistant strain). The data set can be described thus: Mouse protection test. The format is in vivo. The following applies: Staphylococcus aureus, sc.
Description: as §2, §3

For data set [6] the following is noted: comparators, source not given; cited from earlier work.
Another data set deals with SK&F-AAD-609. The data set is described as follows: Susceptibility of SK&F-AAD-609 to antibiotics (diffusion method, BBL susceptibility disks). The format is cell-based, Kibdelosporangium aridum subsp. largum. The following applies: disk 30 μg; 28° C., one week. As for the experimental part:
Susceptibility of SK&F-AAD-609 to antibiotics was examined by placing BBL susceptibility disks on nutrient agar plates seeded with SK&F-ADD-609 as an agar overlay. Plates were placed at 4° C. for one hour to permit diffusion of the anitbiotics and, subsequently, incubated at 28° C. Diameters of the zones of inhibition were measured after incubation for one week.
Susceptibility to Antibiotics. […] Chlortetracycline (5 μg) produced 17-18 mm zones of inhibition; tetracycline (5 μg) 9-12 mm zones; rifampin (5 μg) 10-12 mm zones; novobiocin (5 μg) 30-35 mm zones. All zones of inhibition contained at least a few resistant colonies.

A further data set deals with Escherichia coli 12140. The data set is described as follows: In vitro MIC, standard microtiter assay. It counts as cell-based. The note with it: Escherichia coli, 12140.
Description: as §1

Data set [7] concerns Streptococcus faecalis 657. The data set can be described thus: In vitro MIC, standard microtiter assay. The note with it: Enterococcus faecalis, 657. The format is cell-based.
Description: as §1

Data set [8] relates to S. epidermidis 651 (methicillin resistant strain). The data set can be described thus: In vitro MIC, standard microtiter assay. It counts as cell-based.
Description: as §1

Data set [9] relates to S. epidermidis 2479. The data set can be described thus: In vitro MIC, standard microtiter assay. The format is cell-based.
Description: as §1

Another data set deals with S. epidermidis 2683. The data set is described as follows: In vitro MIC, standard microtiter assay. The format is cell-based. The note with it: Staphylococcus epidermidis, 2683.
Description: as §1

For data set [10], the system named is Salmonella gallinarum BC-595. The data set is described as follows: In vitro MIC, standard microtiter assay. It counts as cell-based. The note with it: Salmonella enterica, GALLINARUM
Description: as §1

The subject of another data set is Clostridium difficile. The data set is described as follows: In vitro MIC, standard microtiter assay. The format is cell-based. The note with it: Clostridioides difficile.
Description: as §1

The subject of data set [11] is Staphylococcus aureus HH127. The data set can be described thus: In vitro MIC, standard microtiter assay. The format is cell-based.
Description: as §1

In a further data set the test system is S. epidermidis 2265. The data set can be described thus: In vitro MIC, standard microtiter assay. The format is cell-based. The note with it: Staphylococcus epidermidis, 2265.
Description: as §1

The subject of data set [12] is S. aureus 2620 (methicillin resistant strain). The data set is described as follows: MIC. It counts as cell-based. The following applies: Staphylococcus aureus.
Description: as §1

In data set [13] the test system is S. faecalis 34358. The data set can be described thus: In vitro MIC, standard microtiter assay. It counts as cell-based, Streptococcus faecalis.
Description: as §1

The test system of another data set is pigs. The note with it: pig, in vivo; cited from earlier work.
For data set [14] the following is noted: 30:70 acetonitrile:water.
The conditions of data set [15]: mouse, in vivo.
Setting [16] is: Table B, methicillin resistant strain.

Data on three compounds can be found in patent US4694069A, “Kibdelosporangium aridum SK&F-AAD-609” (SmithKline Beckman Corporation, priority 1985, dated 1987).

The MIC is the smallest concentration in the dilution series that meets the test's criterion for growth inhibition. As usually defined, the ED50 is the dose that gives a 50% effect, or the effect in half of the subjects. Low values mean an effect at a small dose, high ones a need for a large dose. The term Cmax denotes the maximum level reached in the sampled fluid or tissue.

SMILES strings stand for the structures. Converted amounts (≈) assume the structure as drawn. Like-named read-outs stand apart in the source and are kept apart here. Bridge positions count the residues as written; N and C are the ends. Square brackets hold non-standard residues; d marks the D form. Peptide text beside a SMILES is read from it. * marks the point of attachment. Ileψ(thiazoline)Cys = CC[C@H](C)[C@H](N)C1=N[C@H](C(=O)*)CS1; dOrn = NCCC[C@@H](N)C(=O)O

On to `CN[C@H](CC(C)C)C(=O)N[C@H]1C(=O)N[C@@H](CC(N)=O)C(=O)N[C@H]2C(=O)N[C@H]3C(=O)N[C@H](C(=O)N[C@H](C(=O)O)c4cc(O)cc(O)c4-c4cc3ccc4O)[C@H](O)c3ccc(c(Cl)c3)Oc3cc2cc(c3O[C@@H]2O[C@H](CO)[C@@H](O)[C@H](O)[C@H]2O[C@H]2C[C@](C)(N)[C@H](O)[C@H](C)O2)Oc2ccc(cc2Cl)[C@H]1O` [Vancomycin, vancomycin], for which the MIC with S. aureus 675 is 3.1 µg/mL (≈ 2.14 µM); in the data set with S. aureus 209P it was 0.8 µg/mL (≈ 0.552 µM); with S. aureus 674, 1.6 µg/mL (≈ 1.1 µM); in data set [1] it was 1.6 µg/mL (≈ 1.1 µM); with Escherichia coli 12140 it was greater than 100 µg/mL; in [7], 3.1 µg/mL (≈ 2.14 µM). The MIC in data set [8] (Staphylococcus epidermidis) came out at 3.1 µg/mL (≈ 2.14 µM); in [8] (setting [16]), 3.1 µg/mL (≈ 2.14 µM); in the data set with S. epidermidis 2479 [9] (Staphylococcus epidermidis, 2479), 3.1 µg/mL (≈ 2.14 µM); in the data set on S. epidermidis 2479 [9] (Table B), 3.1 µg/mL (≈ 2.14 µM); against S. epidermidis 2683, 3.1 µg/mL (≈ 2.14 µM); in [10], 100 µg/mL (≈ 69 µM). Further, the minimal inhibitory concentration (MIC) was 2 µg/mL (≈ 1.38 µM) in the data set with Clostridium difficile; 1.6 µg/mL (≈ 1.1 µM) in data set [11] (Staphylococcus aureus, HH127); 1.6 µg/mL (≈ 1.1 µM) in [11] (Table B); 1.6 µg/mL (≈ 1.1 µM) against S. epidermidis 2265; 2 µg/mL (≈ 1.38 µM) in [12]; 3.1 µg/mL (≈ 2.14 µM) against S. faecalis 34358 [13] (Enterococcus faecalis, 34358). The compound further gave an MIC against S. faecalis 34358 [13] (Table B) of 3.1 µg/mL (≈ 2.14 µM). Also, the ED50 with S. faecalis 34358 [2] was determined as 12.5 mg/kg; in data set [3], 4.8 mg/kg; in the data set with S. epidermidis 2479 [4], 4.1 mg/kg; with S. aureus HH127 it was 1.4 mg/kg; in [5] it was 6.7 mg/kg. For the same compound, the Isoelectric point in [6] is 8.2. In addition, in the data set on SK&F-AAD-609, the “Susceptibility (diffusion method)” value is given as “resistant”. The compound also registered an Elimination half-life in “Pharmacokinetics in mice” (mice) of 0.333 h. This compound gave a Cmax in the data set “Pharmacokinetics in mice” (mouse, serum) of 30000 ng/mL.

Turning to `CC[C@H](C)[C@H](N)C1=N[C@H](C(=O)N[C@@H](CC(C)C)C(=O)N[C@H](CCC(=O)O)C(=O)N[C@H](C(=O)N[C@H]2CCCCNC(=O)[C@H](CC(N)=O)NC(=O)[C@@H](CC(=O)O)NC(=O)[C@H](Cc3cnc[nH]3)NC(=O)[C@@H](Cc3ccccc3)NC(=O)[C@H]([C@@H](C)CC)NC(=O)[C@@H](CCCN)NC2=O)[C@@H](C)CC)CS1` [Bacitracin, bacitracin] ({Ileψ(thiazoline)Cys}-L[dE]IK[dOrn]I[dF]H[dD]N; lactam 4-C), the “Growth promotion in pigs (in words)” value with pigs is “known growth promoter in pigs”.

Consider `CCCCCCCCCC(=O)NC1C(Oc2c3cc4cc2Oc2c(Cl)cc(cc2Cl)C(O)C2NC(=O)C(NC(=O)C4NC(=O)C4NC(=O)C(NC(=O)C(NC)c5ccc(O)c(c5)Oc5cc(O)c(Cl)c4c5)C(O)c4ccc(c(Cl)c4)O3)c3ccc(O)c(c3)-c3c(OC4OC(CO)C(O)C(O)C4O)cc(O)cc3C(C(=O)O)NC2=O)OC(CO)C(O)C1O` (stereo not shown) [AAD-609 A], for which the “pKa (A) carboxyl on aglycone” value in data set [14] was 3.4. The “pKa (C) amino group on aglycone” value in [14] is listed as 7.1. The minimum inhibitory concentration (MIC) in the data set on S. aureus 675 (Table A, read-out: MIC) is 6.3 µg/mL (≈ 3.55 µM); in the data set with S. aureus 209P (Table A, read-out: MIC) it was 0.4 µg/mL (≈ 0.225 µM); in the data set with S. aureus 674 (Table A, read-out: MIC) it was 0.8 µg/mL (≈ 0.451 µM); in [1] (Table A, methicillin resistant strain, read-out: MIC) it was 1.6 µg/mL (≈ 0.901 µM); with Escherichia coli 12140 (Table A, read-out: MIC), greater than 100 µg/mL; in [7] (Table A, read-out: MIC) it was 0.4 µg/mL (≈ 0.225 µM). The MIC is 50 µg/mL (≈ 28.2 µM) in [8] (Staphylococcus epidermidis, Table A, methicillin resistant strain, read-out: MIC); 50 µg/mL (≈ 28.2 µM) in data set [8] (setting [16]); 12.5 µg/mL (≈ 7.04 µM) with S. epidermidis 2479 [9] (Staphylococcus epidermidis, 2479, Table A, read-out: MIC); 12.5 µg/mL (≈ 7.04 µM) against S. epidermidis 2479 [9] (Table B); 24 µg/mL (≈ 13.5 µM) with S. epidermidis 2683 (Table A, read-out: MIC); greater than 100 µg/mL in [10] (Table A, read-out: MIC). Besides, the MIC was found to be 0.5 µg/mL (≈ 0.282 µM) with Clostridium difficile (Table A, read-out: MIC); 1.6 µg/mL (≈ 0.901 µM) in data set [11] (Staphylococcus aureus, HH127, Table A, read-out: MIC); 1.6 µg/mL (≈ 0.901 µM) in [11] (Table B); 25 µg/mL (≈ 14.1 µM) in the data set with S. epidermidis 2265 (Table A, read-out: MIC); 2 µg/mL (≈ 1.13 µM) in data set [12] (Table B, methicillin resistant strain, read-out: MIC); 0.4 µg/mL (≈ 0.225 µM) with S. faecalis 34358 [13] (Enterococcus faecalis, 34358, Table A, read-out: MIC). The minimal inhibitory concentration (MIC) with S. faecalis 34358 [13] (Table B) worked out at 0.4 µg/mL (≈ 0.225 µM). This compound showed an Elimination half-life in data set [15] of 1.93 h. Besides, the Maximum serum concentration in [15] came to 90 µg/mL.
